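Five concentrations, 48 hours, 96-well plates. GI50 is the concentration that inhibits growth by half.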 Activity calls are given as the source filed them. Cut-off read from the data, not from the text of the source: active = GI50 up to about 1.1 µM and inactive = higher.
What was measured:
Test in all cases: NCI-60 cell line screen, 48 h
HCT-15 = tested on: HCT-15
K562 = tested on: K562
SF-295 = tested on: SF-295
M14 = tested on: M14
T47D = tested on: T47D
Malme-3M = tested on: Malme-3M
786-0 = tested on: 786-0
DU-145 = tested on: DU-145
Hs-578T = tested on: Hs-578T
SR = tested on: SR
SK-MEL-5 = tested on: SK-MEL-5
NCI-H23 = tested on: NCI-H23
TK-10 = tested on: TK-10
UO-31 = tested on: UO-31
SK-MEL-28 = tested on: SK-MEL-28
MDA-MB-435 = tested on: MDA-MB-435
SN12C = tested on: SN12C
OVCAR-4 = tested on: OVCAR-4
LOX IMVI = tested on: LOX IMVI

Structure (SMILES) | GI50 (HCT-15) [µM] | GI50 (K562) | GI50 (SF-295) | GI50 (M14) | GI50 (T47D) | GI50 (Malme-3M) | GI50 (786-0) | GI50 (DU-145) | GI50 (Hs-578T) | GI50 (SR) | GI50 (SK-MEL-5) | GI50 (NCI-H23) | GI50 (TK-10) | GI50 (UO-31) | GI50 (SK-MEL-28) | GI50 (MDA-MB-435) | GI50 (SN12C) | GI50 (OVCAR-4) | GI50 (LOX IMVI)
O=C(CCCn1ccnc1[N+](=O)[O-])NCCn1ccnc1 | > 100 | > 100 µM (inactive) | > 100 µM (inactive) | > 100 µM (inactive) | > 100 µM (inactive) | > 100 µM (inactive) | > 100 µM (inactive) | > 100 µM (inactive) | > 100 µM (inactive) | > 100 µM (inactive) | > 100 µM (inactive) | > 100 µM (inactive) | > 100 µM (inactive) | > 100 µM (inactive) | > 100 µM (inactive) | > 100 µM (inactive) | > 100 µM (inactive) |  | 
O=c1[nH]c(=O)n(C2CC(O)C(CO)O2)cc1OCc1ccccc1 (configuration not stated) | > 100 | > 100 µM (inactive) |  | > 100 µM (inactive) | > 100 µM (inactive) | > 100 µM (inactive) | > 100 µM (inactive) | > 100 µM (inactive) | > 100 µM (inactive) | > 100 µM (inactive) | > 100 µM (inactive) | > 100 µM (inactive) | > 100 µM (inactive) | > 100 µM (inactive) | > 100 µM (inactive) | > 100 µM (inactive) | > 100 µM (inactive) | > 100 µM (inactive) | > 100 µM (inactive)
OC(CC(CC(O)(C(F)(F)F)C(F)(F)F)=NN=C(CC(O)(C(F)(F)F)C(F)(F)F)CC(O)(C(F)(F)F)C(F)(F)F)(C(F)(F)F)C(F)(F)F | > 10 | > 10 µM (inactive) | > 10 µM (inactive) | > 10 µM (inactive) | > 10 µM (inactive) | > 10 µM (inactive) | > 10 µM (inactive) | > 10 µM (inactive) | > 10 µM (inactive) | > 10 µM (inactive) | > 10 µM (inactive) | > 10 µM (inactive) | > 10 µM (inactive) |  | > 10 µM (inactive) | > 10 µM (inactive) | > 10 µM (inactive) | > 10 µM (inactive) | > 10 µM (inactive)
Cn1c2ccccc2n2c3ncccc3/c(=N/CCCC(=O)O)c(C#N)c12 | > 100 | > 100 µM (inactive) | > 100 µM (inactive) | > 100 µM (inactive) | > 100 µM (inactive) | > 100 µM (inactive) | > 100 µM (inactive) | > 100 µM (inactive) | > 100 µM (inactive) | > 100 µM (inactive) | > 100 µM (inactive) | > 100 µM (inactive) |  | > 100 µM (inactive) | > 100 µM (inactive) | > 100 µM (inactive) | > 100 µM (inactive) | > 100 µM (inactive) | > 100 µM (inactive)
CN1C(=O)C(O)CC1c1cccc(C(F)(F)F)c1 (configuration not stated) | > 100 | > 100 µM (inactive) | > 100 µM (inactive) | > 100 µM (inactive) | > 100 µM (inactive) | > 100 µM (inactive) | > 100 µM (inactive) | > 100 µM (inactive) | > 100 µM (inactive) |  | > 100 µM (inactive) | > 100 µM (inactive) | > 100 µM (inactive) | > 100 µM (inactive) | > 100 µM (inactive) | > 100 µM (inactive) | > 100 µM (inactive) | > 100 µM (inactive) | > 100 µM (inactive)
Nc1nc(Nc2ccc(Cl)cc2)sc1C(=O)c1cccs1 | > 100 |  |  | > 100 µM (inactive) | 77.8 µM (inactive) | 99.3 µM (inactive) | 11.8 µM (inactive) | 78.9 µM (inactive) | 15.2 µM (inactive) | 2.4 µM (inactive) | 38.2 µM (inactive) | 29.2 µM (inactive) | 13.1 µM (inactive) | 17 µM (inactive) | > 100 µM (inactive) | > 100 µM (inactive) | 21 µM (inactive) | 25.9 µM (inactive) | > 100 µM (inactive)
COc1ccc2c(-c3ccc(O)cc3)c(Oc3ccccc3)c(=O)oc2c1 | 5.04 | 8.91 µM (inactive) | 25.5 µM (inactive) | > 100 µM (inactive) | > 28 µM (inactive) | 9.44 µM (inactive) | 12.3 µM (inactive) | 4.58 µM (inactive) | > 50 µM (inactive) | 3.24 µM (inactive) | 3.95 µM (inactive) | 2.63 µM (inactive) | 3.74 µM (inactive) | 3.13 µM (inactive) | 96.8 µM (inactive) | > 100 µM (inactive) |  | 9.62 µM (inactive) | 8.61 µM (inactive)
O=[N+]([O-])c1ccc(OP(=O)(O)OCC2OC(CP(=O)(O)O)C(O)C2O)cc1 (configuration not stated) | > 100 | > 100 µM (inactive) | > 100 µM (inactive) | > 100 µM (inactive) | > 100 µM (inactive) |  | > 100 µM (inactive) | > 100 µM (inactive) | > 100 µM (inactive) | > 100 µM (inactive) | > 100 µM (inactive) | > 100 µM (inactive) | > 100 µM (inactive) | > 100 µM (inactive) | > 100 µM (inactive) | > 100 µM (inactive) | > 100 µM (inactive) | > 100 µM (inactive) | > 100 µM (inactive)
